Source: ChEMBL document CHEMBL3745631, “Discovery of highly potent and selective Bruton's tyrosine kinase inhibitors: Pyridazinone analogs with improved metabolic stability” (Bioorg Med Chem Lett, 2016)

Assays:
[1] = target: Phosphorylase b kinase gamma catalytic chain, skeletal muscle/heart isoform (Homo sapiens) (UniProt Q16816); assay: Inhibition of PhK gamma1 (unknown origin) at 1 uM
[2] = target: Mitogen-activated protein kinase kinase kinase kinase 5 (Homo sapiens) (UniProt Q9Y4K4); assay: Inhibition of KHS1 (unknown origin) at 1 uM
[3] = target: Mitogen-activated protein kinase 1 (Homo sapiens) (UniProt P28482); assay: Inhibition of ERK2 (unknown origin) at 1 uM
[4] = target: 3-phosphoinositide-dependent protein kinase 1 (Homo sapiens) (UniProt O15530); assay: Inhibition of PDK1 (unknown origin) at 1 uM by direct binding assay
[5] = target: Serine/threonine-protein kinase 33 (Homo sapiens) (UniProt Q9BYT3); assay: Inhibition of STK33 (unknown origin) at 1 uM
[6] = target: Tyrosine-protein kinase ABL1 (Homo sapiens) (UniProt P00519); assay: Inhibition of Abl (unknown origin) at 1 uM
[7] = target: Leucine-rich repeat serine/threonine-protein kinase 2 (Homo sapiens) (UniProt Q5S007); assay: Inhibition of LRRK2 (unknown origin) at 1 uM
[8] = target: Serine/threonine-protein kinase Nek1 (Homo sapiens) (UniProt Q96PY6); assay: Inhibition of NEK1 (unknown origin) at 1 uM
[9] = target: Mitogen-activated protein kinase kinase kinase 9 (Homo sapiens) (UniProt P80192); assay: Inhibition of MLK1 (unknown origin) at 1 uM
[10] = target: Serine/threonine-protein kinase pim-1 (Homo sapiens) (UniProt P11309); assay: Inhibition of PIM1 (unknown origin) at 1 uM
[11] = target: MAP kinase-interacting serine/threonine-protein kinase 2 (Homo sapiens) (UniProt Q9HBH9); assay: Inhibition of MKNK2 (unknown origin) at 1 uM
[12] = target: Serine/threonine-protein kinase D1 (PRKD1) (Homo sapiens) (UniProt Q15139); assay: Inhibition of PKD1 (unknown origin) at 1 uM
[13] = target: Serine/threonine-protein kinase Chk1 (Homo sapiens) (UniProt O14757); assay: Inhibition of CHK1 (unknown origin) at 1 uM
[14] = target: Interleukin-1 receptor-associated kinase 4 (Homo sapiens) (UniProt Q9NWZ3); assay: Inhibition of IRAK4 (unknown origin) at 1 uM
[15] = target: Dual specificity tyrosine-phosphorylation-regulated kinase 1A (Homo sapiens) (UniProt Q13627); assay: Inhibition of DYRK1A (unknown origin) at 1 uM
[16] = target: Mast/stem cell growth factor receptor Kit (Homo sapiens) (UniProt P10721); assay: Inhibition of Kit (unknown origin) at 1 uM
[17] = target: Serine/threonine-protein kinase 4 (Homo sapiens) (UniProt Q13043); assay: Inhibition of MST1 (unknown origin) at 1 uM
[18] = target: Tyrosine-protein kinase Fes/Fps (Homo sapiens) (UniProt P07332); assay: Inhibition of Fes (unknown origin) at 1 uM
[19] = target: Cyclin-dependent kinase 7/ cyclin H (Homo sapiens) (UniProt P51946+P50613); assay: Inhibition of CDK7/cyclinH (unknown origin) at 1 uM; type: protein-complex assay
[20] = target: Myotonin-protein kinase (Homo sapiens) (UniProt Q09013); assay: Inhibition of DMPK (unknown origin) at 1 uM
Salmonella typhimurium = assay: Genotoxicity in Salmonella typhimurium TA100 by Ames test in presence of S9 fraction; type: toxicity, organism-based; details: salmonella enterica subsp. enterica serovar typhimurium
[21] = target: Inhibitor of nuclear factor kappa-B kinase subunit beta (Homo sapiens) (UniProt O14920); assay: Inhibition of IKKbeta (unknown origin) at 1 uM
[22] = target: Glycogen synthase kinase-3 beta (Homo sapiens) (UniProt P49841); assay: Inhibition of GSK3 beta (unknown origin) at 1 uM
[23] = target: Casein kinase II subunit alpha (Homo sapiens) (UniProt P68400); assay: Inhibition of CK2 alpha1 (unknown origin) at 1 uM
[24] = target: Vascular endothelial growth factor receptor 3 (Homo sapiens) (UniProt P35916); assay: Inhibition of Flt4 (unknown origin) at 1 uM
[25] = Cytotoxicity against human T cells assessed as cell proliferation
[26] = target: Serine/threonine-protein kinase PAK 6 (Homo sapiens) (UniProt Q9NQU5); assay: Inhibition of PAK6 (unknown origin) at 1 uM
[27] = target: Protein kinase C theta type (Homo sapiens) (UniProt Q04759); assay: Inhibition of PKCtheta (unknown origin) at 1 uM
[28] = Oral bioavailability in rat at 5 mg/kg by LC-MS/MS analysis; type: ADME, organism-based; details: in vivo
[29] = target: Epidermal growth factor receptor (Homo sapiens) (UniProt P00533); assay: Inhibition of EGFR (unknown origin) at 1 uM
[30] = target: Serine/threonine-protein kinase BRSK1 (Homo sapiens) (UniProt Q8TDC3); assay: Inhibition of BrSK1 (unknown origin) at 1 uM
[31] = target: Calcium/calmodulin-dependent protein kinase type II subunit beta (Homo sapiens) (UniProt Q13554); assay: Inhibition of CaMK2 beta (unknown origin) at 1 uM
[32] = Oral bioavailability in mouse at 5 mg/kg by LC-MS/MS analysis; type: ADME, organism-based; details: in vivo
[33] = target: Bone morphogenetic protein receptor type-1A (Homo sapiens) (UniProt P36894); assay: Inhibition of BMPR1A (unknown origin) at 1 uM
[34] = target: PAS domain-containing serine/threonine-protein kinase (Homo sapiens) (UniProt Q96RG2); assay: Inhibition of PASK (unknown origin) at 1 uM
[35] = target: SRSF protein kinase 1 (Homo sapiens) (UniProt Q96SB4); assay: Inhibition of SRPK1 (unknown origin) at 1 uM
[36] = target: Tyrosine-protein kinase Fgr (Homo sapiens, UniProt P09769); assay: Inhibition of FGR (unknown origin) at 1 uM
[37] = target: cAMP-dependent protein kinase catalytic subunit PRKX (Homo sapiens) (UniProt P51817); assay: Inhibition of PrKX (unknown origin) at 1 uM
[38] = target: Death-associated protein kinase 1 (Homo sapiens) (UniProt P53355); assay: Inhibition of DAPK1 (unknown origin) at 1 uM
[39] = target: MAP kinase-interacting serine/threonine-protein kinase 1 (Homo sapiens) (UniProt Q9BUB5); assay: Inhibition of MKNK1 (unknown origin) at 1 uM
[40] = target: G protein-coupled receptor kinase 3 (Homo sapiens) (UniProt P35626); assay: Inhibition of GRK3 (unknown origin) at 1 uM
[41] = target: Dual specificity protein kinase CLK2 (Homo sapiens) (UniProt P49760); assay: Inhibition of CLK2 (unknown origin) at 1 uM
[42] = target: Tyrosine-protein kinase HCK (Homo sapiens) (UniProt P08631); assay: Inhibition of Hck (unknown origin) at 1 uM
[43] = target: TGF-beta-activated kinase 1 and MAP3K7-binding protein 1 (Homo sapiens) (UniProt Q15750); assay: Inhibition of TAK1-TAB1 (unknown origin) at 1 uM

Sequence of cAMP-dependent protein kinase catalytic subunit PRKX (Homo sapiens) (P51817 whole entry): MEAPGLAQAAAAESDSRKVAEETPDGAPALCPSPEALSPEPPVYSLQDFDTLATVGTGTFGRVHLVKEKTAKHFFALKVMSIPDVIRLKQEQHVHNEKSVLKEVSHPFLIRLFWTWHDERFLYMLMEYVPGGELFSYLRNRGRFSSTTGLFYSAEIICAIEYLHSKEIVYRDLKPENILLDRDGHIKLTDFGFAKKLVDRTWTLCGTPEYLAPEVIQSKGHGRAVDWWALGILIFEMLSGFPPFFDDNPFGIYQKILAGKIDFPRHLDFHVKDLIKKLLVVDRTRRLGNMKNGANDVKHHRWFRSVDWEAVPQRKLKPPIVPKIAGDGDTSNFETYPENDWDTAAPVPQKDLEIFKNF
Sequence of Serine/threonine-protein kinase Chk1 (Homo sapiens) (O14757 whole entry): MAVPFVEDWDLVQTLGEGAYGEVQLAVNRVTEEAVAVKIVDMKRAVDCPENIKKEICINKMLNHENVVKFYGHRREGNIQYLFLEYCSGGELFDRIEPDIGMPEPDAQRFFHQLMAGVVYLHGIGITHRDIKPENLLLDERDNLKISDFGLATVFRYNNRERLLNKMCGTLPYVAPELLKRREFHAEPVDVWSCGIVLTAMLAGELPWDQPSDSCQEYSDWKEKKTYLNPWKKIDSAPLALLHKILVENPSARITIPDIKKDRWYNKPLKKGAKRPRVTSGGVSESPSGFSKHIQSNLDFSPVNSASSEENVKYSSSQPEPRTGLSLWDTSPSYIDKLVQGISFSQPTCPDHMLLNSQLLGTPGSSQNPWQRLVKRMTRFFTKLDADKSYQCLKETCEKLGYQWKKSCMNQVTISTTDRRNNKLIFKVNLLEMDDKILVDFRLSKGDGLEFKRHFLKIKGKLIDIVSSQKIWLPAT
Sequence of G protein-coupled receptor kinase 3 (Homo sapiens) (P35626 whole entry): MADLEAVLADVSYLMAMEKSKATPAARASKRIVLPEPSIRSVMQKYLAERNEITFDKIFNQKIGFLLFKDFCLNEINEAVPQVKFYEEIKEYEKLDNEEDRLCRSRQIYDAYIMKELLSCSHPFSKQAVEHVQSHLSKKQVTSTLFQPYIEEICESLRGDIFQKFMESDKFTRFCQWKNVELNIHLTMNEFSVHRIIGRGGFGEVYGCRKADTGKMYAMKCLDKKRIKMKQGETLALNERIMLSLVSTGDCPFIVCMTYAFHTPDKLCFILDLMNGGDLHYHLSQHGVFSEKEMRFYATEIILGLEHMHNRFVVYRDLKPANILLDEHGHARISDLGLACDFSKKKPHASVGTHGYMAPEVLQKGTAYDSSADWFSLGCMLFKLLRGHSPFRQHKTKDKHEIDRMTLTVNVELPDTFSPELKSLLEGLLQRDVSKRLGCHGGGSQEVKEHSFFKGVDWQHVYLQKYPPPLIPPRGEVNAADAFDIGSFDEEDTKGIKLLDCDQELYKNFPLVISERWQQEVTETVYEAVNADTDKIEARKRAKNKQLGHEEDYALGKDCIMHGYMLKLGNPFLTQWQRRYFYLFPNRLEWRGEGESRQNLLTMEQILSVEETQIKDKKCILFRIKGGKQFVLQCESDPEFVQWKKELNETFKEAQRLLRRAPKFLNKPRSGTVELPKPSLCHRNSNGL
Sequence of Serine/threonine-protein kinase D1 (PRKD1) (Homo sapiens) (Q15139 whole entry, looked up): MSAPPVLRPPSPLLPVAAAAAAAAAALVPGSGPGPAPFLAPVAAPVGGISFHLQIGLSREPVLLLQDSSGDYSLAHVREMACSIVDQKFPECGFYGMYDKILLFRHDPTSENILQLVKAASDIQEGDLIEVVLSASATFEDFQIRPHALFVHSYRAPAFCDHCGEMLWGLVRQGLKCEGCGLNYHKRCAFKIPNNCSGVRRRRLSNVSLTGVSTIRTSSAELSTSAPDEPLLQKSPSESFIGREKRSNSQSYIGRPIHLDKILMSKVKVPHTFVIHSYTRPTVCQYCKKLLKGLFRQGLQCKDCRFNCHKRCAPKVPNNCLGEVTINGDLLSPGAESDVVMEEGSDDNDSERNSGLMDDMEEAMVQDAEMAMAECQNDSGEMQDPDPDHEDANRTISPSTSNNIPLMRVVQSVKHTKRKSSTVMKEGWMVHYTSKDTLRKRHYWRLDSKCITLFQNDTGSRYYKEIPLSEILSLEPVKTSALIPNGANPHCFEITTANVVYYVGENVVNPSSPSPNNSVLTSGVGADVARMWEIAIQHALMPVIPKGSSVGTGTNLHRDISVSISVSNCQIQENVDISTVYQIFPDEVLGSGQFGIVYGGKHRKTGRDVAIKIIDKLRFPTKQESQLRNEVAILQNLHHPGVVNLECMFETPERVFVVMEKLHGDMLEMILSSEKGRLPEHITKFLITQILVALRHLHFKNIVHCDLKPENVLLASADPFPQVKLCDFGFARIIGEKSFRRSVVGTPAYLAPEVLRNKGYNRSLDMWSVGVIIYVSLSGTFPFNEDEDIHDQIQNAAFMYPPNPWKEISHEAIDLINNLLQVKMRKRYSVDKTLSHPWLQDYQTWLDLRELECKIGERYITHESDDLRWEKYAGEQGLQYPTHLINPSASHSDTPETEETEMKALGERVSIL
Sequence of Myotonin-protein kinase (Homo sapiens) (Q09013 whole entry): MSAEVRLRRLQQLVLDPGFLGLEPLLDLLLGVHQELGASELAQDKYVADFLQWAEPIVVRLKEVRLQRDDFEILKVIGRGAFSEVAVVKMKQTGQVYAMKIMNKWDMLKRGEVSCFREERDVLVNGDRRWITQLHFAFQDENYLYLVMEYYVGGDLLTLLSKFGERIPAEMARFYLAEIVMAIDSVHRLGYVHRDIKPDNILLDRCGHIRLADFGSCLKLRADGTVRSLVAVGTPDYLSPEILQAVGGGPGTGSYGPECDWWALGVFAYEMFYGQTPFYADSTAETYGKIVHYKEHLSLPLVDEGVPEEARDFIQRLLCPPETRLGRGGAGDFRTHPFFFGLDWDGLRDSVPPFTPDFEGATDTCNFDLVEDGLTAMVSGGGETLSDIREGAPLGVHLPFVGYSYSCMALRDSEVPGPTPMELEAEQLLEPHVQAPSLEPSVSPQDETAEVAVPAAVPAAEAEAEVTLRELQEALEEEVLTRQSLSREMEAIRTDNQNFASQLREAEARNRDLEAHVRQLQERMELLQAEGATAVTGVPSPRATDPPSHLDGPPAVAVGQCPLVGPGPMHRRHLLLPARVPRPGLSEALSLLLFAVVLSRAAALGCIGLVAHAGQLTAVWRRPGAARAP
Sequence of Bone morphogenetic protein receptor type-1A (Homo sapiens) (P36894 whole entry, the tested form may be a part): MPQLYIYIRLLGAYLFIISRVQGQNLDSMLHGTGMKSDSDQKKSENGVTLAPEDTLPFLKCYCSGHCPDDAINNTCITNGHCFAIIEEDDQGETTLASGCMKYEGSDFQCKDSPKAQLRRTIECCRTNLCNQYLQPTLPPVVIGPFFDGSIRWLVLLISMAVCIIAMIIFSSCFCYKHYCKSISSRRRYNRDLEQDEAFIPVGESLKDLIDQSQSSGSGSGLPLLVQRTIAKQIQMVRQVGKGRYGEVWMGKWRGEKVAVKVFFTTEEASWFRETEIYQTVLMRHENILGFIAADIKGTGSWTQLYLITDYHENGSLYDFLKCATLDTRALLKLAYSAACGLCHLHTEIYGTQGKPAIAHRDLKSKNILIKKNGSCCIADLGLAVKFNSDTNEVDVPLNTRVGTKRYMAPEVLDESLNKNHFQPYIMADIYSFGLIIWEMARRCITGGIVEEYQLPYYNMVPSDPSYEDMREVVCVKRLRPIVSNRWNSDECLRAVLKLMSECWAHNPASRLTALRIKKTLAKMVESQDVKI
Sequence of Mast/stem cell growth factor receptor Kit (Homo sapiens) (P10721 whole entry): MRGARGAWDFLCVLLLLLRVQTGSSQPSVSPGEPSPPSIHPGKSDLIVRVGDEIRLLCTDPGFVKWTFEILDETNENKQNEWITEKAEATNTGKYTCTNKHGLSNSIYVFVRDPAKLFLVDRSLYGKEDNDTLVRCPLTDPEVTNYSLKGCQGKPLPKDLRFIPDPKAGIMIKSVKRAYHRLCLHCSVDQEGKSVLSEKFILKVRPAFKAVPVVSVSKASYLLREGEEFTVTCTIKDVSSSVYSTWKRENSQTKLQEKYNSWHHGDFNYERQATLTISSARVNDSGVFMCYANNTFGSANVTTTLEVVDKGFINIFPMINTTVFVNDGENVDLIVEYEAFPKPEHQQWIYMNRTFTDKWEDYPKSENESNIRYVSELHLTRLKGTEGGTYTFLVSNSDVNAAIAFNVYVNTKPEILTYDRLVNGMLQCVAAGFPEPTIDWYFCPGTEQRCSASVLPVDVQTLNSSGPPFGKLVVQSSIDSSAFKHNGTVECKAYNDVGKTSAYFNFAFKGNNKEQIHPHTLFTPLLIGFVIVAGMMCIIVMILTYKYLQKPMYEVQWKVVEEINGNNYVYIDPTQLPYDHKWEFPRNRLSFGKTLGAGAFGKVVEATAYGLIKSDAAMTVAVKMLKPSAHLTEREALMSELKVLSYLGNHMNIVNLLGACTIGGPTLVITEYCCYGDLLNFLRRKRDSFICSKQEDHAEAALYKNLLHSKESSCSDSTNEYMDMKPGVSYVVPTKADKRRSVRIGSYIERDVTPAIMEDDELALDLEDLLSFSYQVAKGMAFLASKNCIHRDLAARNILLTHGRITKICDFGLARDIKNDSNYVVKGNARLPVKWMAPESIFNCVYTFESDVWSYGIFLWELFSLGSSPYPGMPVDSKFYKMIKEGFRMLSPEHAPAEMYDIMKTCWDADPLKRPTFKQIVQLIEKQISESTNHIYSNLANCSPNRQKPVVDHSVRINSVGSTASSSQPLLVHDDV
Sequence of Interleukin-1 receptor-associated kinase 4 (Homo sapiens) (Q9NWZ3 whole entry): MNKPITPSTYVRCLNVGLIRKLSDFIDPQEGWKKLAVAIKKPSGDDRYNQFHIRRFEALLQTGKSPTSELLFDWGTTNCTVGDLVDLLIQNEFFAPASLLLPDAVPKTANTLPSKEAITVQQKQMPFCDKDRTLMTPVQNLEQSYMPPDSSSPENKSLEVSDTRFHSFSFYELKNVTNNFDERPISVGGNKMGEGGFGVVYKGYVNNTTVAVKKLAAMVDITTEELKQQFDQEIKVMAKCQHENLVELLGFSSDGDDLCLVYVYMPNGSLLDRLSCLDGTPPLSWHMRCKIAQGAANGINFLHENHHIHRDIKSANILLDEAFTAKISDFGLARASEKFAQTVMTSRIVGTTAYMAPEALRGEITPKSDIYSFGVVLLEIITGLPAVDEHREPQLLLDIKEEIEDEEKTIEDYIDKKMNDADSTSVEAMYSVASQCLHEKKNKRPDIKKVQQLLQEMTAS

Cc1c(-c2cc(Nc3cc4n(n3)CCN(C)C4)c(=O)[nH]n2)ccc(F)c1NC(=O)c1cc2ccccc2s1
inhibition [1]: -1.2% | inhibition [2]: 17.3% | inhibition [3]: 6.8% | inhibition [4]: -8% | inhibition [5]: 8.3% | inhibition [6]: 11.3% | inhibition [7]: 4.7% | inhibition [8]: 1.5% | inhibition [9]: -7.5% | inhibition [10]: 4.5% | inhibition [11]: -0.2% | inhibition [12]: 1.6% | inhibition [13]: 4.8% | inhibition [14]: 2% | inhibition [15]: 4.8% | inhibition [16]: 1.9% | inhibition [17]: -2.6% | inhibition [18]: 7.2% | inhibition [19]: -7.7% | inhibition [20]: -3.6% | Activity (Salmonella typhimurium): Non-toxic | inhibition [21]: 2.2% | inhibition [22]: 11.1% | inhibition [23]: 0.8% | inhibition [24]: 2.7% | EC50 [25]: > 5 µM | inhibition [26]: 1.8% | inhibition [27]: -6.9% | bioavailability [28]: 26% | inhibition [29]: -5.5% | inhibition [30]: 0.8% | inhibition [31]: -2.2% | bioavailability [32]: 34% | inhibition [33]: -4.5% | inhibition [34]: 6.2% | inhibition [35]: 0.6% | inhibition [36]: 69.8% | inhibition [37]: -9.9% | inhibition [38]: 0.1% | inhibition [39]: -2.8% | inhibition [40]: 0.7% | inhibition [41]: -7% | inhibition [42]: 3% | inhibition [43]: 13.7%
